Data as given in patent publication US4859668A, “Method of inhibiting the growth of melanin-pigmented cells” (North Carolina State University, priority 1988, dated 1989).
Converted amounts (≈) assume the structure as drawn. Where two headings read alike, the source gives them in different places.

Legend:
[1] = test system: Chinese hamster ovary (CHO); assay: cells; conditions: Cricetulus griseus, 48 h, read-out: ID50 (growth)
Experimental: (§1) The Figure illustrates the effect of morpholine on the growth rate of HFH-LP (*), NP (0), BHK (+) and CHO (#) 48 hours after treatment. Values represent the mean ± S.E. for 3 to 6 determinations.

[2] = test system: HFH-LP (pigmented line derived from the B-16 mouse melanoma); assay: cells
Experimental: as §1

[3] = test system: NP (amelanotic clone of HFH-LP); assay: cells; conditions: Mus musculus, 48 h, read-out: ID50 (growth)
Experimental: as §1

[4] = test system: baby hamster kidney (BHK); assay: cells; conditions: Mesocricetus auratus, 48 h, read-out: ID50 (growth)
Experimental: as §1

[5] = test system: unpigmented cell lines NP, BHK and CHO
Experimental: as §1

HFH-LP [6] = assay: Effect of Cyclic Amines on Growth Rate of Pigmented Melanoma (Table I), HFH-LP; type: cell-based, mouse; conditions: for inhibition at 13800 µM: Mus musculus, read-out: Effect on Growth Rate (inhibition), HFH-LP
Experimental: (§4) These cell cultures include low passage HFH (HFH-LP), a pigmented line derived from the B-16 mouse melanoma, and NP, an amelanotic clone of HFH-LP. […] These cells were maintained as monolayers in Corning plastic flasks in Minimum Essential Medium (Eagle) with Earle's salts supplemented with 10% fetal bovine serum, 100 units of penicillin, 100 mg of streptomycin and 5 mg of amphotericin B per ml in 5% CO2 humidified air at 37° C.
(§5) Prior to dose-response studies, single cell suspensions were prepared in medium following trypsinization and inoculated into Falcon Multiwell plates (2 cm^2 wells) at 3.5×10^4 cells per 0.5 ml of medium. Cultures were maintained for 24 hours before exposure.
(§6) This stock solution was used to prepare test concentrations of the drug in culture medium. […] Cells were exposed to each of these concentrations by adding 0.5 ml of each of the solutions to triplicate test wells and incubating the cells under exposure at 37° C. for 1 hour. […] Cells were harvested after 48 hours and counted with a hemacytometer.

S91 melanoma = assay: Effects of Various Cyclic Amines on Growth of Pigmented Melanoma Cells (Table III), S91; type: cell-based, mouse; conditions: Mus musculus, read-out: Percent Inhibition, S91 melanoma
Experimental: (§2) Pigmented S91 melanoma and unpigmented L929 fibroblast cells were treated with various cyclic amines at a concentration of 13.8 mM as described in Example 1 above.

L929 fibroblast = assay: Effects of Various Cyclic Amines on Growth of Pigmented Melanoma Cells (Table III), L929; type: cell-based, mouse; conditions: Mus musculus, read-out: Percent Inhibition, L929 fibroblast
Experimental: as §2

BHK [7] = assay: cells; conditions: Mesocricetus auratus, read-out: Percent Cell Detachment
Experimental: (§3) HFH and SH heavily pigmented cells, S91 lightly pigmented cells, and BHK nonpigmented cells were exposed to 13.8 mM morpholine for time periods ranging from 1 hour to 56 hours. The procedure was otherwise the same as described in Example 1 above. Cell death is indicated by cell detachment.

HFH = assay: cells; conditions: Homo sapiens, read-out: Percent Cell Detachment
Experimental: as §3

S91 = assay: cells; conditions: Mus musculus, read-out: Percent Cell Detachment
Experimental: as §3

SH = assay: cells; conditions: read-out: Percent Cell Detachment
Experimental: as §3

L929 = assay: cells; conditions: Mus musculus, L929, 48 h, read-out: Growth inhibition, Morph. Alone vs. control
melanin-pigmented cells = assay: In vitro selective inhibition of melanin-pigmented cells, effective dosage/time regimens; type: cell-based
RPMI-1641 [8] = conditions: RPMI 1641, morpholine alone
Source text: (§7) These cell cultures include low passage HFH (HFH-LP), a pigmented line derived from the B-16 mouse melanoma, and NP, an amelanotic clone of HFH-LP. High passage HFH (HFH-HP) was derived from HFH-LP after 30 passages in vitro. […] These cell cultures further include Cloudman S91 mouse melanoma, RPMI 1846 (a Syrian hamster melanoma), baby hamster kidney (BHK) and Chinese hamster ovary (CHO). These cells were maintained as monolayers in Corning plastic flasks in Minimum Essential Medium (Eagle) with Earle's salts supplemented with 10% fetal bovine serum, 100 units of penicillin, 100 mg of streptomycin and 5 mg of amphotericin B per ml in 5% CO2 humidified air at 37° C.
(§8) Single cell suspensions were prepared as described above. Twenty-four hours after seeding, the cells were exposed to either (a) culture medium alone, or (b) culture medium containing 0.5 mM theophylline.
(§9) The values given are the mean from 6 replicates.

NP [9] = assay: cells; conditions: Mus musculus, 1.5 h, read-out: Effect on Growth Rate (inhibition), NP
Experimental: as §4, §5, §6

HFH-LP [10] = assay: cells; conditions: Mus musculus, 48 h, read-out: Growth inhibition, Morph. Alone vs. control
Source text: as §7, §8, §9

RPMI-1641 [11] = assay: cells; conditions: Mesocricetus auratus, 48 h, read-out: Growth inhibition, Morph. Alone vs. control
Source text: as §7, §8, §9

NP [12] = assay: cells; conditions: Mus musculus, 48 h, read-out: Growth inhibition, Morph. Alone vs. control
Source text: as §7, §8, §9

BHK [13] = assay: cells; conditions: Mesocricetus auratus, 48 h, read-out: Growth inhibition, Morph. Alone vs. control
Source text: as §7, §8, §9

in vitro = conditions: mouse, l929 cells
Experimental: (§10) These cells were maintained as monolayers in Corning plastic flasks in Minimum Essential Medium (Eagle) with Earle's salts supplemented with 10% fetal bovine serum, 100 units of penicillin, 100 mg of streptomycin and 5 mg of amphotericin B per ml in 5% CO2 humidified air at 37° C.
as §5, §6

[14] = test system: S91 (Cloudman S91 mouse melanoma); assay: Effect of Cyclic Amines on Survival of Pigmented Melanoma (Table II), S91; conditions: 24 h, read-out: percentage dead, S91
Experimental: as §10, §5, §6

HFH-LP [15] = assay: Effect of Cyclic Amines on Survival of Pigmented Melanoma (Table II), HFH-LP; conditions: Mus musculus, 24 h, read-out: percentage dead, HFH-LP
Experimental: as §10, §5, §6

[16] = Effect of Cyclic Amines on Survival of Pigmented Melanoma (Table II), L929; conditions: mouse, l929 cells
Experimental: as §10, §5, §6

Source text for HFH-HP: as §7, §8, §9

## C1COCCN1 [morpholine]
[1]
  IC50: > 2400 µg/mL
[2]; Mus musculus, 48 h, read-out: ID50 (growth)
  IC50: 1200 µg/mL (≈ 13.8 mM)
[2]; at 1200 and 2400 ug/ml
  inhibition of pigmented HFH cell line compared with unpigmented cell lines: inhibited significantly more (P<0.05)
[2]; up to, 300-2400 ug/ml, 48 hours after treatment
  inhibition of pigmented cells: up to 90%
[3]
  IC50: > 2400 µg/mL
[4]
  IC50: > 2400 µg/mL
[5]; any of the dosages tested
  difference between unpigmented cell lines: did not differ significantly from one another
[5]; higher dosages, 48 hours after treatment
  inhibition of nonpigmented cell growth: 20%
[5]; low dosages, 48 hours after treatment
  effect on nonpigmented cell growth: not affected
HFH-LP [6]; 13.8 mM for 1.5 hr, mean ± S.E., 6 replicates
  inhibition at 13800 µM: 97 ± 19%
S91 melanoma; S91, 1 Hour Exposure to 13.8 mM
  inhibition at 13800 µM: 60%
L929 fibroblast; L929, 1 Hour Exposure to 13.8 mM
  inhibition at 13800 µM: 0%
BHK [7]; 1 h
  cytotoxicity at 13800 µM: 0%
BHK [7]; 6 h
  cytotoxicity at 13800 µM: 0%
BHK [7]; 12 h
  cytotoxicity at 13800 µM: 0%
BHK [7]; 18 h
  cytotoxicity at 13800 µM: 0%
BHK [7]; 24 h
  cytotoxicity at 13800 µM: 20%
BHK [7]; 56 h
  cytotoxicity at 13800 µM: 100%
HFH; 1 h
  cytotoxicity at 13800 µM: 0%
HFH; 6 h
  cytotoxicity at 13800 µM: 40%
HFH; 12 h
  cytotoxicity at 13800 µM: 100%
HFH; 18 h
  cytotoxicity at 13800 µM: 100%
HFH; 24 h
  cytotoxicity at 13800 µM: 100%
HFH; 56 h
  cytotoxicity at 13800 µM: 100%
S91; S91, 1 h
  cytotoxicity at 13800 µM: 0%
S91; S91, 6 h
  cytotoxicity at 13800 µM: 50%
S91; S91, 12 h
  cytotoxicity at 13800 µM: 100%
S91; S91, 18 h
  cytotoxicity at 13800 µM: 100%
S91; S91, 24 h
  cytotoxicity at 13800 µM: 100%
S91; S91, 56 h
  cytotoxicity at 13800 µM: 100%
SH; 1 h
  cytotoxicity at 13800 µM: 0%
SH; 6 h
  cytotoxicity at 13800 µM: 0%
SH; 12 h
  cytotoxicity at 13800 µM: 5%
SH; 18 h
  cytotoxicity at 13800 µM: 80%
SH; 24 h
  cytotoxicity at 13800 µM: 80%
SH; 56 h
  cytotoxicity at 13800 µM: 100%
L929
  inhibition at 1200 µg/mL: -68%
melanin-pigmented cells; 2.3 mM for 6 days
  in vitro effectiveness of dosage/time regimen: effective in vitro for inhibiting the growth of melanin-pigmented cells with little or no effect upon unpigmented cells
melanin-pigmented cells; 13.8 mM for 1 hour
  in vitro effectiveness of dosage/time regimen: effective in vitro for inhibiting the growth of melanin-pigmented cells with little or no effect upon unpigmented cells
melanin-pigmented cells; 750 ppm (9mM) or 500 ppm (5mM)
  selective toxicity to melanoma cells in vitro: selectively toxic to melanoma cells in vitro
HFH-HP; growth inhibition increasing from 25% to 54%
  greater toxicity of morpholine with theophylline pretreatment: twofold
HFH-HP; morpholine with theophylline pretreatment
  growth inhibition with theophylline pretreatment: 54%
RPMI-1641 [8]
  growth rate with morpholine exposure alone: not inhibited
NP [9]
  inhibition at 13800 µM: 0%
HFH-LP [10]
  inhibition at 1200 µg/mL: 64%
RPMI-1641 [11]
  inhibition at 1200 µg/mL: -6%
NP [12]
  inhibition at 1200 µg/mL: -9%
BHK [13]
  inhibition at 1200 µg/mL: 0%
In vitro
  cytotoxicity at 24 h, 13800 µM: -101 ± 15%
[14]
  cytotoxicity at 13800 µM: 55 ± 6%
HFH-LP [15]
  cytotoxicity at 13800 µM: 30 ± 7%

## C1CCNCC1 [piperidine]
HFH-LP [6]; 1.5 h
  inhibition at 13800 µM: 42 ± 4%
HFH-LP [6]; not as effective as morpholine at the dosage tested
  inhibition of pigmented cell line HFH-LP (in words): selectively inhibitory to the pigmented cell line HFH-LP, although not as effective as morpholine
S91 melanoma; S91, 1 h
  inhibition at 13800 µM: 98%
L929 fibroblast; L929, 1 h
  inhibition at 13800 µM: 0%
melanin-pigmented cells; 13.8 mM for 1 hour
  in vitro effectiveness of dosage/time regimen: effective in vitro for inhibiting the growth of melanin-pigmented cells with little or no effect upon unpigmented cells
NP [9]
  inhibition at 13800 µM: 0%
[14]
  cytotoxicity at 13800 µM: 44 ± 3%
[16]
  cytotoxicity at 24 h, 13800 µM: -115 ± 14%
HFH-LP [15]
  cytotoxicity at 13800 µM: 33 ± 2%
